{
  "source": "patent US11547130B2",
  "about": "“Nanocomposite bacteriostatic material and a preparation method and an application thereof” (Tianjin University of Science and Technology, priority 2019, dated 2023)",
  "system": "Bacillus subtilis",
  "assay": "Shake-flask antibacterial test, viable count by dilution spread plate method",
  "format": "cell-based",
  "experimental": "Bacillus subtilis was selected as a strain for the antibacterial test. The Bacillus subtilis was cultured for overnight in a shake flask first, and a bacteria solution having a concentration of 10^8 CFU/mL was selected as a seed solution for later use. Multiple 100 mL triangular flasks provided with 30 mL of LB liquid medium were taken, and sterilized for 20 min at 121° C. The triangular flasks were divided into four groups, three triangular flasks in each group for parallel test.\n(§1) The Bacillus subtilis solution having the concentration of 10^8 CFU/mL was inoculated to the above four groups as per an inoculum size of 2% (v/v), and respectively cultured for 4 h, 8 h, 12 h, 24 h and 28 h on a shaker, where a culture condition was 37° C. and 180 r/min. Then, a sample at every timing was taken, and a viable count in each shake flask was measured via a dilution spread plate method to embody the antibacterial activity.\nas §1, with “r/min, for sampling.” for “r/min.”, “sample” for “sample at every timing”, “flask at every moment” for “flask”",
  "data": [
    {"substance": "nisin", "values": [
      {"measurement": "concentration of bacteria in the shake flask", "setting": "Experimental example 1 (Embodiment 1 materials, nisin 1 g/L), 1 mL agent in 30 mL LB, 8-12 h in culture", "result": "≥ 10^7 CFU/mL"},
      {"measurement": "concentration of viable bacteria in the shake flask", "setting": "Experimental example 1 (Embodiment 1 materials, nisin 1 g/L), 1 mL agent in 30 mL LB, 4 h in culture, 37° C.", "result": "≥ 10^4 CFU/mL"},
      {"measurement": "antibacterial activity in words", "setting": "Experimental example 1 (nisin 1 g/L), nisin at 8 h, empty carrier at 24-28 h, nano-composite at 28 h", "result": "lost bacteriostatic action at 8 h"},
      {"measurement": "antibacterial activity in words", "setting": "Experimental example 2 (Embodiment 2 materials, nisin 10 g/L), at 16 h", "result": "greatly reduced"}
    ]}
  ]
}
